Molecular target: T1, Dopamine beta hydroxylase (Homo sapiens, UniProt P09172)
T1 construct: 125 μl of plasma; tissue Instituto Português do Sangue Transplantação; host or cells: human plasma from healthy donors
T1 sequence (P09172 40-617 limits assumed): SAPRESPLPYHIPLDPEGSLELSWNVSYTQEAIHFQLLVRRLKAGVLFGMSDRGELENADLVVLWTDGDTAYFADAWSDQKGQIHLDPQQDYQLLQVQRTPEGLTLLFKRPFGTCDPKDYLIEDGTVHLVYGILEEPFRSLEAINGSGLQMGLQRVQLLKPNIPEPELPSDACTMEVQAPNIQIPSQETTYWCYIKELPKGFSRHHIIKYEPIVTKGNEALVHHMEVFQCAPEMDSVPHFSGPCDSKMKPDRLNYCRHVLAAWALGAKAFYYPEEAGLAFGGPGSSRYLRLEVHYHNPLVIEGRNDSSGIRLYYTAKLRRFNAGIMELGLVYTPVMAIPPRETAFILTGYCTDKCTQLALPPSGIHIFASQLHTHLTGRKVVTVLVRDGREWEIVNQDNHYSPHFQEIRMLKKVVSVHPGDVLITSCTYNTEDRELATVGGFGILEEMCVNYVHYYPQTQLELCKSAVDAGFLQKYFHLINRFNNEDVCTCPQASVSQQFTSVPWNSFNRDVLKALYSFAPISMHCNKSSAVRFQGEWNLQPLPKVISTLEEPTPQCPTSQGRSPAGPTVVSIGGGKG
Test: Dopamine beta hydroxylase activity in human plasma
Type: biochemical
Settings: for Plasma (0.01 μM), activity in % of control: inhibitor 0.01 μM; for Plasma (0.1 μM), activity in % of control: inhibitor 0.1 μM; for Plasma (1 μM), activity in % of control: inhibitor 1 μM
How it was run: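 Healthy-donor human plasma pre-incubated 10 min at 37° C with compound at final 10, 100 or 1000 nM in pH 5.0 acetate buffer with ascorbate, fumarate, pargyline, N-ethylmaleimide, catalase and copper sulfate. Tyramine substrate then added for 45 min; octopamine formed was isolated by SCX cartridge, periodate-converted and read at 330 nm; activity given as % control.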

| Plasma (0.01 μM), activity in % of control | Plasma (0.1 μM), activity in % of control | Plasma (1 μM), activity in % of control | Compound |
| --- | --- | --- | --- |
| 35.4 % of control | 3.4 % of control | – | Cn1c(CC(=O)N[C@@H]2CCCOC2)c2n(c1=S)C[C@@]1(c3cc(Br)ccc3F)C[C@@H]21 [Example 277, 2-((5aS,6aR)-5a-(5-bromo-2-fluorophenyl)-2-methyl-3-thioxo-2,3,5,5a,6,6a-hexahydrocyclopropa[3,4]pyrrolo[1,2-c]imidazol-1-yl)-N—((R)-tetrahydro-2H-pyran-3-yl)acetamide] |
| 94.4 % of control | 33.2 % of control | – | Cn1c(CC(=O)NC2CCOCC2)c2n(c1=S)C[C@@H](c1c(F)cccc1F)C2 [Example 447, (R)-2-(6-(2,6-difluorophenyl)-2-methyl-3-thioxo-2,5,6,7-tetrahydro-3H-pyrrolo[1,2-c]imidazol-1-yl)-N-(tetrahydro-2H-pyran-4-yl)acetamide] |
| 60.1 % of control | 3.9 % of control | – | Cn1c(CC(=O)NC2CCS(=O)(=O)CC2)c2n(c1=S)C[C@@H](c1c(F)ccc(F)c1F)C2 [Example 239, (R)—N-(1,1-dioxidotetrahydro-2H-thiopyran-4-yl)-2-(2-methyl-3-thioxo-6-(2,3,6-trifluorophenyl)-2,5,6,7-tetrahydro-3H-pyrrolo[1,2-c]imidazol-1-yl)acetamide] |
| 46.2 % of control | 16.5 % of control | – | Cn1c(CC(=O)Nc2cnsc2)c2n(c1=S)C[C@@H](c1c(F)ccc(F)c1F)C2 [Example 351, (R)—N-(isothiazol-4-yl)-2-(2-methyl-3-thioxo-6-(2,3,6-trifluorophenyl)-2,5,6,7-tetrahydro-3H-pyrrolo[1,2-c]imidazol-1-yl)acetamide] |
| 96.0 % of control | 72.9 % of control | – | COC[C@@H]1CCCN1C(=O)Cc1c2n(c(=S)n1C)C[C@@H](c1c(F)c(F)cc(F)c1F)C2 [Example 283, 1-((S)-2-(methoxymethyl)pyrrolidin-1-yl)-2-((R)-2-methyl-6-(2,3,5,6-tetrafluorophenyl)-3-thioxo-2,5,6,7-tetrahydro-3H-pyrrolo[1,2-c]imidazol-1-yl)ethan-1-one] |
| 84.5 % of control | 47.1 % of control | – | CCOCCCc1[nH]c(=S)n2c1C[C@H](c1c(F)c(F)cc(F)c1F)C2 [Example 216, (R)-1-(3-ethoxypropyl)-6-(2,3,5,6-tetrafluorophenyl)-2,5,6,7-tetrahydro-3H-pyrrolo[1,2-c]imidazole-3-thione] |
| 94.3 % of control | 23.0 % of control | – | CN(C(=O)Cc1c2n(c(=S)n1C)C[C@@H](c1c(F)c(F)cc(F)c1F)C2)C1COC1 [Example 398, (R)—N-methyl-2-(2-methyl-6-(2,3,5,6-tetrafluorophenyl)-3-thioxo-2,5,6,7-tetrahydro-3H-pyrrolo[1,2-c]imidazol-1-yl)-N-(oxetan-3-yl)acetamide] |

The remaining lines, values behind:

| Compound | Plasma (0.01 μM), activity in % of control | Plasma (0.1 μM), activity in % of control | Plasma (1 μM), activity in % of control |
| --- | --- | --- | --- |
| O=C(Cc1[nH]c(=S)n2c1C[C@H](c1c(F)ccc(F)c1F)C2)NC1CCOCC1 [Example 376, (R)—N-(tetrahydro-2H-pyran-4-yl)-2-(3-thioxo-6-(2,3,6-trifluorophenyl)-2,5,6,7-tetrahydro-3H-pyrrolo[1,2-c]imidazol-1-yl)acetamide] | 116.3 % of control | 59.3 % of control | – |
| CN(C(=O)Cc1[nH]c(=S)n2c1C[C@H](c1c(F)c(F)cc(F)c1F)C2)C1CCOCC1 [Example 378, (R)—N-methyl-2-(6-(2,3,5,6-tetrafluorophenyl)-3-thioxo-2,5,6,7-tetrahydro-3H-pyrrolo[1,2-c]imidazol-1-yl)-N-(tetrahydro-2H-pyran-4-yl)acetamide] | 110.2 % of control | 52.6 % of control | – |
| Cn1c(CCC(=O)N2CCCC2)c2n(c1=S)C[C@@H](c1c(F)c(F)cc(F)c1F)C2 [Example 261, (R)-3-(2-methyl-6-(2,3,5,6-tetrafluorophenyl)-3-thioxo-2,5,6,7-tetrahydro-3H-pyrrolo[1,2-c]imidazol-1-yl)-1-(pyrrolidin-1-yl)propan-1-one] | 86.2 % of control | 31.8 % of control | – |
| CN(C(=O)Cc1c2n(c(=S)n1C)C[C@H](c1c(F)ccc(Br)c1F)C2)C1CCOCC1 [Example 405, (S)-2-(6-(3-bromo-2,6-difluorophenyl)-2-methyl-3-thioxo-2,5,6,7-tetrahydro-3H-pyrrolo[1,2-c]imidazol-1-yl)-N-methyl-N-(tetrahydro-2H-pyran-4-yl)acetamide] | 50.7 % of control | 4.5 % of control | – |
| O=C(Cc1[nH]c(=S)n2c1C[C@@H](c1c(F)ccc(Br)c1F)C2)N1CCSCC1 [Example 137, (S)-2-(6-(3-bromo-2,6-difluorophenyl)-3-thioxo-2,5,6,7-tetrahydro-3H-pyrrolo[1,2-c]imidazol-1-yl)-1-thiomorpholinoethan-1-one] | 72.9 % of control | 21.5 % of control | – |
| O=C(Cc1[nH]c(=S)n2c1C[C@H](c1c(F)c(F)cc(F)c1F)C2)NC1CCS(=O)(=O)CC1 [Example 129, (R)—N-(1,1-dioxidotetrahydro-2H-thiopyran-4-yl)-2-(6-(2,3,5,6-tetrafluorophenyl)-3-thioxo-2,5,6,7-tetrahydro-3H-pyrrolo[1,2-c]imidazol-1-yl)acetamide] | 50.1 % of control | 10.3 % of control | – |
| O=C(Cc1[nH]c(=S)n2c1C[C@H](c1c(F)ccc(Br)c1F)C2)NCc1ccccn1 [Example 139, (R)-2-(6-(3-bromo-2,6-difluorophenyl)-3-thioxo-2,5,6,7-tetrahydro-3H-pyrrolo[1,2-c]imidazol-1-yl)-N-(pyridin-2-ylmethyl)acetamide] | 77.8 % of control | 20.8 % of control | – |
| O=C(Cc1[nH]c(=S)n2c1C[C@@H](c1c(F)ccc(Br)c1F)C2)NC1CCCC1=O (stereo partly drawn) [Example 34, 2-((S)-6-(3-bromo-2,6-difluorophenyl)-3-thioxo-3,5,6,7-tetrahydro-2H-pyrrolo[1,2-c]imidazol-1-yl)-N-(2-oxocyclopentyl)acetamide] | – | 10.4 % of control | 0 % of control |
| Cn1c(CC(=O)N[C@@H]2CCOC2)c2n(c1=S)C[C@H](c1c(F)ccc(F)c1F)C2 [Example 412, 2-((S)-2-methyl-3-thioxo-6-(2,3,6-trifluorophenyl)-2,5,6,7-tetrahydro-3H-pyrrolo[1,2-c]imidazol-1-yl)-N—((R)-tetrahydrofuran-3-yl)acetamide] | 106.2 % of control | 63.2 % of control | – |
| O=C(Cc1[nH]c(=S)n2c1C[C@@H](c1c(F)ccc(Cl)c1F)C2)NC1CCCC1 [Example 84, (S)-2-(6-(3-chloro-2,6-difluorophenyl)-3-thioxo-2,5,6,7-tetrahydro-3H-pyrrolo[1,2-c]imidazol-1-yl)-N-cyclopentylacetamide] | – | 24.5 % of control | 1.0 % of control |
| Cn1c(CC(=O)N2CCC(CF)C2)c2n(c1=S)C[C@H](c1c(F)ccc(Br)c1F)C2 (stereo partly drawn) [Example 458, 2-((S)-6-(3-bromo-2,6-difluorophenyl)-2-methyl-3-thioxo-2,5,6,7-tetrahydro-3H-pyrrolo[1,2-c]imidazol-1-yl)-1-(3-(fluoromethyl)pyrrolidin-1-yl)ethan-1-one] | 58.5 % of control | 12.2 % of control | – |
| C[C@H](NC(=O)Cc1[nH]c(=S)n2c1C[C@H](c1c(F)c(F)cc(F)c1F)C2)C(N)=O [Example 26, (S)-2-(2-((R)-6-(2,3,5,6-tetrafluorophenyl)-3-thioxo-2,5,6,7-tetrahydro-3H-pyrrolo[1,2-c]imidazol-1-yl)acetamido)propanamide] | – | 64.0 % of control | 18.2 % of control |
| Cn1c(CC(=O)NC2CCCCC2)c2n(c1=S)C[C@@]1(c3cc(Cl)ccc3F)C[C@@H]21 [Example 302, 2-((5aS,6aR)-5a-(5-chloro-2-fluorophenyl)-2-methyl-3-thioxo-2,3,5,5a,6,6a-hexahydrocyclopropa[3,4]pyrrolo[1,2-c]imidazol-1-yl)-N-cyclohexylacetamide] | 62.7 % of control | 7.7 % of control | – |
| O=C(Cc1[nH]c(=S)n2c1[C@@H]1C[C@]1(c1cc(Br)ccc1F)C2)NC1CCC1 [Example 153, 2-((5aS,6aR)-5a-(5-bromo-2-fluorophenyl)-3-thioxo-2,3,5,5a,6,6a-hexahydrocyclopropa[3,4]pyrrolo[1,2-c]imidazol-1-yl)-N-cyclobutylacetamide] | 85.5 % of control | 28.4 % of control | – |

— US11434242B2, “Dopamine-b-hydroxylase inhibitors” (BIAL-PORTELA & Cª, S.A., priority 2017, dated 2022)
